Target: T1, KRAS G12C 1-169, his-tagged protein, GDP-loaded (Homo sapiens, UniProt P01116, G12C)
T1 construct: KRAS G12C 1-169, his-tagged protein, GDP-loaded
Test: Biochemical assay: covalent modification of KRAS G12C measured by mass spectrometry (RapidFire/TOF or Q-Exactive)
Type: binding
Details: tested at 32 μM
Protocol: Test compounds were prepared as 10 mM stock solutions in DMSO (Fisher cat. #BP-231-100). KRAS G12C 1-169, his-tagged protein, GDP-loaded is diluted to 2 μM or 0.5 μM in buffer (20 mM Hepes, 150 mM NaCl, 1 mM MgCl2). Compounds were tested for activity as follows:
Compounds were diluted to 50× final test concentration in DMSO in 96-well storage plates. Compound stock solutions were vortexed before use and observed cwerefully for any sign of precipitation. Dilutions were as follow: • For 32 μM final compound concentration, compounds were diluted to 1600 μM (3 μL 10 mM compound stock +15.75 μL DMSO and mixed well by pipetting. • For 8 μM final compound concentration, compounds were diluted to 400 μM (2 μL 10 mM compound stock +48 μL DMSO) and mixed well by pipetting. 49 μL of the stock protein solution was added to each well of a 96-well PCR plate (Fisher cat#1423027). 1 μl of the diluted 50× compounds were added to appropriate wells in the PCR plate using 12-channel pipettor. Reactions were mixed carefully and thoroughly by pipetting up/down with a 200 μL multi-channel pipettor. The plate was sealed well with aluminum plate seal, and protein and compound were allowed to react for a desired amount of time. 5 μL of 2% formic acid (Fisher cat#A117) in de-ionized H2O was then added to each well followed by mixing with a pipette to quench the reaction. The plate was then resealed with aluminum seal and stored frozen on dry ice until analyzed as described below.
The above described assays were analyzed by mass spectrometry according to one of the following two procedures:
The MS instrument was set to positive polarity, 2 GHz resolution, and low mass (1700) mode and allowed to equilibrate for 30 minutes. The instrument was then calibrated, switched to acquisition mode and the appropriate method loaded.
After another 30 minute equilibration time, a blank batch (i.e., buffer) was run to ensure equipment is operating properly. The samples were thawed at 37° C. for 10 minutes, briefly centrifuged, and transfered to the bench top. Wells A1 and H12 were spiked with 1 μL 500 μM internal standard peptide, and the plates centrifuged at 2000×g for 5 minutes. The method was then run and masses of each individual well recorded.
The masses (for which integration data is desired) for each well were pasted into the platemap and exported from the analysis. Masses for the internal standards were exported as well. The data at 50 ppm was extracted for the +19 charge state, and identity of well A1 was assigned using the internal standard spike and integrated. Peak data was exported as a TOF list and the above steps were repeated individually, for the +20, +21, +22, +23, +24, and +25 charge states.
The masses and peak intensities of KRAS G12C protein species were measured using a Dionex RSLCnano system (Thermo Scientific) connected to a Q Exactive Plus mass spectrometer (Thermo Scientific).
20 μL of sample was loaded onto a Aeris™ 3.6 μm WIDEPORE C4 200 Å, LC Column 50×2.1 mm column maintained at 40° C. at a flow rate of 600 μL/min with 80% Solvent A (0.1% formic acid in H2O) and 20% Solvent B (0.1% formic acid in acetonitrile). The liquid chromatography conditions were 20% solvent B for 1 minute, 20% to 60% solvent B for 1.5 minutes, 60% to 90% solvent for 0.5 minute, 90% solvent B for 0.2 minute, 90% to 20% solvent B for 0.2 minute, and then equilibrated for 1.6 minute before the following sample injection. The flow rate was maintained at 600 μL/min throughout the sample analysis.
The mass spectrometer was operated in profile mode at a resolution of 17500, 5 microscans, using 50 msec max injection time and an AGC target of 1×10^6, and a full mass range from 800-1850 m/z was recorded. The intact protein mode was applied for optimal ion transfer and maximum sensitivity. The ionization method was electrospray ionization, which used a spray voltage of 4 kV, sheath gas flow set to 50 AU, auxiliary gas flow set to 10 AU and sweep gas flow set to 1 AU. […]

Row | SMILES | Bind %
1 | CC#CC(=O)N1CC2(CCN(c3cccc(-c4c(O)cccc4F)c3C#N)C2)C1 [Compound I-18, 3-(2-(but-2-ynoyl)-2,6-diazaspiro[3.4]octan-6-yl)-2′-fluoro-6′-hydroxy-[1,1′-biphenyl]-2-carbonitrile] | + (+ indicates binding activity greater than 0% and up to 50%)
2 | C=CC(=O)N1CC2(CCN(c3cccc(-c4c(C)ccc5[nH]nc(N)c45)c3C#N)C2)C1 [Compound I-19, 2-(2-acryloyl-2,6-diazaspiro[3.4]octan-6-yl)-6-(3-amino-5-methyl-1H-indazol-4-yl)benzonitrile] | +++ (+++ indicates binding activity greater than 75%)
3 | C=CC(=O)N1CC2(CCN(c3cc(OCc4ccccn4)cc(-c4c(C)ccc5[nH]ncc45)c3C#N)C2)C1 [Compound I-20, 2-(2-acryloyl-2,6-diazaspiro[3.4]octan-6-yl)-6-(5-methyl-1H-indazol-4-yl)-4-(pyridin-2-ylmethoxy) benzonitrile] | +++ (+++ indicates binding activity greater than 75%)
4 | C=CC(=O)N1CC2(CCN(c3cc(OC[C@@H]4CCCN4C)cc(-c4c(C)ccc5[nH]ncc45)c3C#N)C2)C1 [Compound I-21, 2-(2-acryloyl-2,6-diazaspiro[3.4]octan-6-yl)-6-(5-methyl-1H-indazol-4-yl)-4-(((S)-1-methylpyrrolidin-2-yl)methoxy) benzonitrile] | +++ (+++ indicates binding activity greater than 75%)
5 | C=CC(=O)N1CCC2(CCN(c3cccc(-c4c(C)ccc5[nH]ncc45)c3C#N)C2)C1 (centres unmarked) [Compound I-22, 2-(7-acryloyl-2,7-diazaspiro[4.4]nonan-2-yl)-6-(5-methyl-1H-indazol-4-yl)benzonitrile] | + (+ indicates binding activity greater than 0% and up to 50%)
6 | CC#CC(=O)N1CC2(CCN(c3cccc(-c4c(C)ccc5[nH]nc(N)c45)c3C#N)C2)C1 [Compound I-23, 2-(3-amino-5-methyl-1H-indazol-4-yl)-6-(2-(but-2-ynoyl)-2,6-diazaspiro[3.4]octan-6-yl)benzonitrile] | + (+ indicates binding activity greater than 0% and up to 50%)
7 | C=CC(=O)N1CC2(CCN(c3cc(N4CCC(N(C)C)CC4)cc(-c4c(C)ccc5[nH]ncc45)c3C#N)C2)C1 [Compound I-24, 2-(2-acryloyl-2,6-diazaspiro[3.4]octan-6-yl)-4-(4-(dimethylamino)piperidin-1-yl)-6-(5-methyl-1H-indazol-4-yl)benzonitrile] | +++ (+++ indicates binding activity greater than 75%)
8 | C=CC(=O)N1CC2(CCN(c3ccc(C)c(-c4c(C)ccc5[nH]ncc45)c3C#N)C2)C1 [Compound I-25, 6-(2-acryloyl-2,6-diazaspiro[3.4]octan-6-yl)-3-methyl-2-(5-methyl-1H-indazol-4-yl)benzonitrile] | ++ (++ indicates binding activity from 50 to 75%)
9 | Cc1ccc2[nH]ncc2c1-c1cccc(N2CCC3(CN(C(=O)/C=C/CN(C)C)C3)C2)c1C#N [Compound I-36, (E)-2-(2-(4-(dimethylamino)but-2-enoyl)-2,6-diazaspiro[3.4]octan-6-yl)-6-(5-methyl-1H-indazol-4-yl)benzonitrile] | + (+ indicates binding activity greater than 0% and up to 50%)

Same assay, conditions: tested at a concentration of 8 μM

Row | SMILES | Bind %
10 | C=CC(=O)N1CC2(CCN(c3cc(N4CC(N(C)C)C4)cc(-c4c(C)ccc5[nH]ncc45)c3C#N)C2)C1 [Compound I-26, 2-(2-acryloyl-2,6-diazaspiro[3.4]octan-6-yl)-4-(3-(dimethylamino)azetidin-1-yl)-6-(5-methyl-1H-indazol-4-yl)benzonitrile] | +++ (+++ indicates binding activity greater than 75%)
11 | C=CC(=O)N1CC2(CCN(c3cc(OCCCN(C)C)cc(-c4c(C)ccc5[nH]ncc45)c3C#N)C2)C1 [Compound I-27, 2-(2-acryloyl-2,6-diazaspiro[3.4]octan-6-yl)-4-(3-(dimethylamino)propoxy)-6-(5-methyl-1H-indazol-4-yl)benzonitrile] | ++ (++ indicates binding activity from 50 to 75%)
12 | C=CC(=O)N1CC2(CCN(c3cc(OCc4ccccn4)cc(-c4c(C)ccc5cnn(C)c45)c3C#N)C2)C1 [Compound I-28, 2-(2-acryloyl-2,6-diazaspiro[3.4]octan-6-yl)-6-(1,6-dimethyl-1H-indazol-7-yl)-4-(pyridin-2-ylmethoxy) benzonitrile] | +++ (+++ indicates binding activity greater than 75%)
13 | C=CC(=O)N1CC2(CCN(c3ccc(F)c(-c4c(C)ccc5[nH]ncc45)c3C#N)C2)C1 [Compound I-29, 6-(2-acryloyl-2,6-diazaspiro[3.4]octan-6-yl)-3-fluoro-2-(5-methyl-1H-indazol-4-yl)benzonitrile] | +++ (+++ indicates binding activity greater than 75%)
14 | C=CC(=O)N1CC2(CCN(c3cc(N4CCN(C)C(=O)C4)cc(-c4c(C)ccc5[nH]ncc45)c3C#N)C2)C1 [Compound I-30, 2-(2-acryloyl-2,6-diazaspiro[3.4]octan-6-yl)-6-(5-methyl-1H-indazol-4-yl)-4-(4-methyl-3-oxopiperazin-1-yl)benzonitrile] | ++ (++ indicates binding activity from 50 to 75%)
15 | C=CC(=O)N1CC2(CCN(c3cc(N4CCCC(O)C4)cc(-c4c(C)ccc5[nH]ncc45)c3C#N)C2)C1 (centres unmarked) [Compound I-31, 2-(2-acryloyl-2,6-diazaspiro[3.4]octan-6-yl)-4-(3-hydroxypiperidin-1-yl)-6-(5-methyl-1H-indazol-4-yl)benzonitrile] | +++ (+++ indicates binding activity greater than 75%)
16 | C=CC(=O)N1CC2(CCN(c3cc(N4CCC(CN(C)C)CC4)cc(-c4c(C)ccc5[nH]ncc45)c3C#N)C2)C1 [Compound I-32, 2-(2-acryloyl-2,6-diazaspiro[3.4]octan-6-yl)-4-(4-((dimethylamino)methyl)piperidin-1-yl)-6-(5-methyl-1H-indazol-4-yl)benzonitrile] | +++ (+++ indicates binding activity greater than 75%)
17 | C=CC(=O)N1CC2(CCN(c3cc(N4CCCC(N(C)C)C4)cc(-c4c(C)ccc5[nH]ncc45)c3C#N)C2)C1 (centres unmarked) [Compound I-33, 2-(2-acryloyl-2,6-diazaspiro[3.4]octan-6-yl)-4-(3-(dimethylamino)piperidin-1-yl)-6-(5-methyl-1H-indazol-4-yl)benzonitrile] | +++ (+++ indicates binding activity greater than 75%)
18 | Cc1ccc2[nH]ncc2c1-c1cc(N2CCOCC2)cc(N2CCC3(CN(C(=O)/C=C/CN(C)C)C3)C2)c1C#N [Compound I-34, (E)-2-(2-(4-(dimethylamino)but-2-enoyl)-2,6-diazaspiro[3.4]octan-6-yl)-6-(5-methyl-1H-indazol-4-yl)-4-morpholino-benzonitrile] | + (+ indicates binding activity greater than 0% and up to 50%)
19 | C=CC(=O)N1CC2(CCN(c3cc(OCCCN(C)C)cc(-c4c(C)ccc5cnn(C)c45)c3C#N)C2)C1 [Compound I-35, 2-(2-acryloyl-2,6-diazaspiro[3.4]octan-6-yl)-6-(1,6-dimethyl-1H-indazol-7-yl)-4-(3-(dimethylamino)propoxy) benzonitrile] | ++ (++ indicates binding activity from 50 to 75%)
20 | C=CC(=O)N1CC2(CCN(c3ccc(OC)c(-c4c(C)ccc5[nH]ncc45)c3C#N)C2)C1 [Compound I-37, 6-(2-acryloyl-2,6-diazaspiro[3.4]octan-6-yl)-3-methoxy-2-(5-methyl-1H-indazol-4-yl)benzonitrile] | + (+ indicates binding activity greater than 0% and up to 50%)

Source: patent US20210380595A1 (ARAXES PHARMA LLC, priority 2018, published 2021)
